In one series the test system is E. coli WP2 uvrA strain. The experiment in a line: Microbial mutagenicity assay (Ames test). Particulars: positive control. (In general: In the Ames test, an excess of revertant colonies over the control signals mutagenicity.)
In series [1] the target is T1, Spike RBD/ACE2 (19–615) interaction (Severe acute respiratory syndrome coronavirus 2, UniProt P0DTC2).
T1 construct: S protein RBD (aa residues 319–541) of SARS-CoV-2; expressed in transfected cells; host or cells: HEK293T
The experiment in a line: cell-based. It is filed as cell-based, SARS-CoV-2. Particulars: for inhibition at 50 µM / inhibition at 10 µM / inhibition at 25 µM: HEK-293T, 48 h, read-out: suppression of Spike RBD/ACE2 (19–615) interaction.

The subject of the next series is SARS-CoV-2 pseudovirus. The experiment in a line: microbe, parasite or virus in culture. It counts as cell-based. Particulars: Severe acute respiratory syndrome-related coronavirus, SH-SY5Y, read-out: IC50, inhibition of pseudovirus cell entry.
For series [2], the system named is SARS-CoV-2. It counts as cell-based.
The subject of series [3] is SARS-CoV-2. The experiment in a line: microbe, parasite or virus in culture. It counts as cell-based.
The subject of a further series is Vero E6 cells. The experiment in a line: MTT toxicity assay in Vero E6 cells. It is filed as cell-based. Particulars: 48 h. How it is done:
(§1) Chemical compounds were dissolved and serially diluted in DMSO. Their cytotoxicity was assessed using an MTT assay. Briefly, HEK293T, SH-SY5Y or Vero E6 cells were cultured in 96-well plates (4 × 10^4 cells/well) at 37 °C in a 5% CO2 atmosphere. Cells were treated for 48 h with varying concentrations of the compounds (100–0.1 μM) or solvent. […] Treated cells were incubated for 4 h with […] MTT (Applichem). After incubation, the MTT-containing medium was removed and formazan crystals were dissolved in DMSO. The optical density (OD) of formazan solution at 570 and 630 nm was measured in a SPARK plate reader (Tecan).

A further series deals with HEK293T cells. The experiment in a line: MTT cytotoxicity assay in HEK293T cells. It is filed as cell-based. Particulars: 100 μM, 48 h. How it is done:
as §1
For orientation: Tetrazolium assays rely on reduction of a dye to a coloured formazan, in cell work by metabolically active cells.

Molecules are shown by their SMILES.

As to `Nc1ccc2cc3ccccc3cc2c1` [2-aminoanthracene, reference compound], the mean revertants with E. coli WP2 uvrA strain (10 μg/plate, +S9) is on record as over 300.
On to `Oc1cccc2c1ncn2Cc1ccc(-c2ccccc2)cc1` [CKP-30, 1-([1,1′-Biphenyl]-4-ylmethyl)-1H-benzo[d]imidazol-4-ol], for which the melting point (as a rule, the temperature of the solid-liquid transition) lay within 258 to 259 °C. In addition, the “activity on Spike RBD/ACE2 (19–615) interaction (in words)” value (from here on “activity on Spike RBD/ACE2”) in series [1] was “none of the 4-hydroxy congeners of 28 and 29, compounds 31 (CKP-26) and 32 (CKP-30) maintained inhibitory activity”.
For `COc1ccc(Cn2c[n+](C/C=C/c3ccc([N+](=O)[O-])cc3)c3ccccc32)cc1OC.[Br-]`, the melting point is 146 to 148 °C (dec.).
Regarding `c1ccc2cc(Cn3cnc4ccccc43)ccc2c1` [CKP-22, 1-(Naphthalen-2-ylmethyl)-1H-benzo[d]imidazole], the melting point fell in the range of 139 to 140 °C. Moreover, the IC50 – broadly, the concentration needed to halve the response being measured – in the series with SARS-CoV-2 pseudovirus was found to be 49 ± 2.5 µM. In series [1], the IC50 was 55 µM, the “concentration-dependent suppression of Spike RBD/ACE2 (19–615) interaction” value was “suppressed Spike RBD/ACE2 (19–615) interaction in a concentration-dependent manner”, the “effect on Spike RBD/ACE2 (19–615) interaction” value was “suppressed the interaction” and the inhibition at 50 µM was determined as 81%. Also, in the series with SARS-CoV-2 [2], the “reduction of SARS-CoV-2 levels (viral load) in cell culture supernatant” value came out at 68%. Further, in the series on SARS-CoV-2 [3], the “prevention of infection from the original SARS-CoV-2 in vitro” value is “strongly prevented infection” and the “reduction of the cytopathic effect (CPE) of the virus” value is given as “approximately 90%”.
As for `O=[N+]([O-])c1ccc(/C=C/C[n+]2cn(CCc3ccc4ccccc4c3)c3ccccc32)cc1.[Br-]` [CKP-47, (E)-1-(2-(Naphthalen-2-yl)ethyl)-3-(3-(4-nitrophenyl)allyl)-1H-benzo[d]imidazol-3-ium Bromide], the melting point was 176 to 177 °C (dec.). Moreover, the “toxicity against Vero E6 cells” value with Vero E6 cells is “toxic”. Besides, the inhibition at 10 µM in series [1] came to 34%.
Compound `O=[N+]([O-])c1ccc(/C=C/C[n+]2cn(Cc3ccc4ccccc4c3)c3ccccc32)cc1.[Br-]` came in with a melting point of 189 to 191 °C.
For `COc1cccc2c1ncn2Cc1ccc(-c2ccccc2)cc1` [CKP-27, 1-([1,1′-Biphenyl]-4-ylmethyl)-4-methoxy-1H-benzo[d]imidazole], the melting point is 150 to 151 °C. Moreover, the inhibition at 25 µM in series [1] came out at 72%. Moreover, the “effect on viral load in the cell culture supernatant (in words)” value in the series with SARS-CoV-2 [2] was “reduced the viral load”. Further, the “effect on the cytopathic effect of SARS-CoV-2 (in words)” value (from here on “effect on the cytopathic effect”) in the series on SARS-CoV-2 [3] is “consistently reduced the cytopathic effect”.
In turn, `Clc1ccc(/C=C/C[n+]2cn(Cc3ccc4ccccc4c3)c3ccccc32)cc1.[Br-]` [CKP-32, (E)-3-(3-(4-Chlorophenyl)allyl)-1-(naphthalen-2-ylmethyl)-1H-benzo[d]imidazol-3-ium Bromide] registered a melting point of 166 to 167 °C. The “toxicity against Vero E6 cells” value in the series on Vero E6 cells is “toxic”. In addition, the inhibition at 10 µM in series [1] is 70%.
With `COc1cccc2c1[n+](C/C=C/c1ccc([N+](=O)[O-])cc1)cn2Cc1ccc(-c2ccccc2)cc1.[Br-]` [CKP-40, (E)-1-([1,1′-Biphenyl]-4-ylmethyl)-4-methoxy-3-(3-(4-nitrophenyl)allyl)-1H-benzo[d]imidazol-3-ium Bromide], the melting point was 203 to 204 °C. In addition, in series [1], the “activity on Spike RBD/ACE2” value is on record as “active” and the inhibition at 25 µM is 14%. The “effect on the cytopathic effect” value with SARS-CoV-2 [3] is “not protective against SARS-CoV-2”.
For the compound `Oc1ccc(Cn2cnc3ccccc32)cc1O` [CKP-35, 4-((1H-Benzo[d]imidazol-1-yl)methyl)benzene-1,2-diol], the melting point was 188 to 190 °C (dec.).
Consider `COS(C)(=O)=O` [methyl methanesulfonate, reference compound], for which the mean revertants with E. coli WP2 uvrA strain (2.5 μL/plate, –S9) is reported as over 300.
As for `Cc1cc(O)c2c(c1)C(=O)c1cc(O)cc(O)c1C2=O` [Emodin, reference compound], in series [1] (100 μM), the “suppression of Spike/ACE2 interaction” value is about 27%. Also, in the series on HEK293T cells, the cytotoxicity entry is on record as “non-cytotoxic”.
For `COc1cccc2c1[n+](C/C=C/c1ccc(Cl)cc1)cn2Cc1ccc(-c2ccccc2)cc1.[Br-]`, the melting point is 205 to 206 °C.
On to `O=c1c(Oc2ccc(-c3ccccc3)cc2)coc2cc(O)ccc12` [compound 6659989, 3-(4-biphenylyloxy)-7-hydroxy-4H-chromen-4-one], for which, in the series with SARS-CoV-2 pseudovirus, the IC50 was determined as 3.2 ± 0.2 µM. In series [1], the “concentration-dependent suppression of Spike RBD/ACE2 (19–615) interaction” value is “suppressed Spike RBD/ACE2 (19–615) interaction in a concentration-dependent manner” and the “effect on Spike RBD/ACE2 (19–615) interaction” value was “suppressed the interaction”.
Regarding `COc1cccc2c1[n+](C/C=C/c1ccc(Cl)cc1)cn2Cc1ccc2ccccc2c1.[Br-]`, the melting point lay in the range of 228 to 229 °C.
Turning to `Nc1cccc2c1ncn2Cc1ccc2cccnc2c1` [CKP-49, 1-(Quinolin-7-ylmethyl)-1H-benzo[d]imidazol-4-amine], in series [1], the inhibition at 50 µM was 30%. The “effect on viral load in the cell culture supernatant (in words)” value in the series with SARS-CoV-2 [2] is “reduced the viral load”. Further, the “effect on the cytopathic effect” value in the series on SARS-CoV-2 [3] was “consistently reduced the cytopathic effect”.
Compound `COc1ccc(Cn2cnc3ccccc32)cc1OC` [CKP-24, 1-(3,4-Dimethoxybenzyl)-1H-benzo[d]imidazole] had a melting point of 131 to 132 °C.
Still for that read-out and setting: the value for `O=[N+]([O-])c1ccc(/C=C/C[n+]2cn(Cc3ccc(-c4ccccc4)cc3)c3ccccc32)cc1.[Br-]` was 236 to 238 °C (dec.); that for `c1cnc2cc(Cn3cnc4ccccc43)ccc2c1` [CKP-36, 7-((1H-Benzo[d]imidazol-1-yl)methyl)quinoline] was 166 to 168 °C (dec.).
`COc1cccc2c1ncn2Cc1ccc2cccnc2c1` [CKP-44, 7-((4-Methoxy-1H-benzo[d]imidazol-1-yl)methyl)quinoline]: the melting point lay within 161 to 162 °C. Besides, the “activity on Spike RBD/ACE2” value in series [1] is on record as “did not exhibit any effect”.
`COc1cccc2c1[n+](C/C=C/c1ccc([N+](=O)[O-])cc1)cn2Cc1ccc2ccccc2c1.[Br-]` [CKP-42, (E)-4-Methoxy-1-(naphthalen-2-ylmethyl)-3-(3-(4-nitrophenyl)allyl)-1H-benzo[d]imidazol-3-ium Bromide] registered a melting point of 227 to 228 °C. In series [1], the “activity on Spike RBD/ACE2” value is “active” and the inhibition at 10 µM came out at 74%.
Take `c1ccc(-c2ccc(Cn3cnc4ccccc43)cc2)cc1` [CKP-23, 1-([1,1′-Biphenyl]-4-ylmethyl)-1H-benzo[d]imidazole]: the melting point lay within 184 to 186 °C.

(Values after paper PMC11600510 (Journal of Chemical Information and Modeling, 2024).)
